ChEMBL document CHEMBL1154002, “GPR109a agonists. Part 1: 5-Alkyl and 5-aryl-pyrazole-tetrazoles as agonists of the human orphan G-protein coupled receptor GPR109a” (Bioorg Med Chem Lett, 2009)

What was measured:
[1] = Bioavailability in C57BL/6 mouse at 1 mg/kg, iv and 2 mg/kg, po; format: ADME, organism-based; details: in vivo
[2] = Plasma clearance in C57BL/6 mouse at 1 mg/kg, iv and 2 mg/kg, po; format: ADME, organism-based
[3] = Volume of distribution at steady state in C57BL/6 mouse at 1 mg/kg, iv and 2 mg/kg, po; format: ADME, organism-based; details: in vivo, read-out: Vdss
[4] = Plasma half life in C57BL/6 mouse at 1 mg/kg, iv and 2 mg/kg, po; format: ADME, organism-based
[5] = system: Mus musculus; experiment: Reduction in plasma free fatty acid level in C57B1/6 mouse at 10 mg/kg after 15 mins; format: functional; design: scale not given: the % may be the effect or the level left
[6] = system: Mus musculus; experiment: Toxicity in C57B1/6 mouse assessed as cutaneous flushing at 30 mg/kg after 15 mins by laser doppler method; format: organism-based; design: dose 30 mg/kg; details: in vivo

Row | bioavailability [1] [%] | clearance [2] [mL/min/kg] | Vd [3] [L/kg] | half-life [4] [h] | SMILES | Activity [5] [%] | Activity [6]
1 | 51 | 30 | 1.55 | 2.9 | CCCC1Cc2[nH]nc(-c3nnn[nH]3)c2C1 (stereo unspecified) | – | –
2 | 10 | 27 | 1.1 | 2.4 | Fc1cc(F)c(F)c(C2Cc3[nH]nc(-c4nnn[nH]4)c3C2)c1 (stereo in doubt; 9o) | 24 | Non-toxic
3 | 57 | 47 | 1.79 | 1.8 | Fc1cccc(C2Cc3[nH]nc(-c4nnn[nH]4)c3C2)c1 (stereo unspecified) | – | –

More lines, now with the values behind:

Row | SMILES | bioavailability [1] [%] | clearance [2] [mL/min/kg] | Vd [3] [L/kg] | half-life [4] [h] | Activity [5] [%] | Activity [6]
4 | CCCCC1Cc2[nH]nc(-c3nnn[nH]3)c2C1 (stereo in doubt; 8d) | 34 | 21 | 0.7 | 1.5 | – | –
5 | O=C(O)c1cccnc1 [NIACIN] | 100 | 145 | 1 | – | – | –
